From ChEMBL document CHEMBL1201862, “PubChem BioAssay data set” (2004) come the findings set out here.

Common to all, as to experiment: NCI tumour cell line growth inhibition, 48 h
The subject of test [1] is A549.
Test [2] has as its system CCRF-CEM.
In test [3] the test system is COLO 205.
Test [4] deals with DU-145.
The test system of test [5] is EKVX.
The test system of test [6] is HCT-116.
In test [7] the test system is HL-60.
The test system of test [8] is IGROV-1.
In test [9] the test system is KM12.
Test [10] deals with MDA-MB-231.
The test system of test [11] is Malme-3M.
The subject of test [12] is NCI-H460.
Test [13] deals with NCI-H522.
Test [14] concerns NCI/ADR-RES.
Test [15] concerns OVCAR-3.
The test system of test [16] is OVCAR-4.
Test [17] relates to RXF 393.
The test system of test [18] is SNB-19.
Test [19] relates to UACC-257.
Test [20] relates to UO-31.

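Following 48 hours of exposure in 96-well plates, responses at five concentrations were used to interpolate endpoints linearly. GI50 = concentration required for 50% inhibition of growth.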 Active and inactive are the calls of the source. Cut-off read from the data, not from the text of the source: active = GI50 up to about 1.1 µM and inactive = higher.

With `CC[C@]12C=CCN3CC[C@@]4(c5cc(N=O)c(OC)cc5N(C)[C@H]4[C@@](O)(C(=O)OC)[C@@H]1OC(C)=O)[C@@H]32`, the GI50 in test [1] is 58.9 µM (inactive); in test [2], 21.6 µM (inactive); in test [3], 38.2 µM (inactive); in test [4] it was > 100 µM (inactive); in test [5], > 100 µM (inactive); in test [6], 50.7 µM (inactive). Also, the GI50 in test [7] was 37.8 µM (inactive); in [8], > 100 µM (inactive); in test [9] it was 90.8 µM (inactive); in test [10], 39.4 µM (inactive); in test [11], 71.3 µM (inactive); in test [12], 92.3 µM (inactive). The GI50 was 18.5 µM (inactive) in [13]; > 100 µM (inactive) in test [14]; 48 µM (inactive) in test [15]; > 100 µM (inactive) in [16]; 44.1 µM (inactive) in [17]; > 100 µM (inactive) in [18]. For the same compound, the GI50 in [19] and in [20] was > 100 µM (inactive) in each case.
On to `CN(C)c1ccc(/C=C/C=c2/c3ccccc3n3c2cc(-c2ccccc2)[n+]3C)cc1`, for which the GI50 is 0.26 µM (active) in test [1]; 0.187 µM (active) in test [2]; 0.0698 µM (active) in test [3]; 0.0931 µM (active) in [4]; 0.254 µM (active) in test [5]; 0.0386 µM (active) in test [6]. Moreover, the GI50 in test [7] is 0.075 µM (active); in test [8], 0.238 µM (active); in test [9] it was 0.0598 µM (active); in [10] it was 0.466 µM (active); in test [11], 0.492 µM (active); in test [12], 0.307 µM (active). Besides, the GI50 was 0.0548 µM (active) in [13]; 3.43 µM (inactive) in [14]; 0.0746 µM (active) in [15]; 0.414 µM (active) in test [16]; 0.063 µM (active) in [17]; 0.127 µM (active) in test [18]. The GI50 is 0.182 µM (active) in test [19] and 0.333 µM (active) in test [20].
